Experiments:
[1] = system: Raw 264.7 cells; assay: Intracellular cAMP in LPS-stimulated macrophage cell line (ELISA); format: cell-based; conditions: 30 nM compound 1 or 15 nM compound 2 for 1 h, then 1 μM LPS 30 min
Protocol: (§1) The macrophage cell line, Raw 264.7 was maintained for 24 h in serum free DMEM medium. Then, cells were incubated with 30 nM of compound 1 and 15 nM of compound 2 for 1 h. After incubation, 1 μM of LPS (Sigma-Aldrich, United States) was added and incubated for 30 min at 37°C in a humidified 5% CO2 atmosphere. Finally, cells were lysed and supernatants were harvested. Intracellular cAMP levels were measured using the cAMP ELISA kit according to the manufacturer’s instruction (ADI-900-066; Enzo Life Sciences, United States). Similarly, TNFα level was assayed by ELISA analysis according to the manufacturer’s protocol (LEGEND MAX^TM Human TNF-α ELISA Kit, San Diego, CA, United States). Concentration is expressed in pg/mL.

[2] = target: T1, PDE4D7 (Homo sapiens, UniProt Q08499); assay: PDE enzyme inhibitor assay (LANCE Ultra cAMP), PDE4D; format: biochemical; conditions: for IC50: 0.1 ng/well enzyme, 3 nM cAMP, 37°C 1 h
T1 construct: purchased BPS Biosciences
Protocol: (§2) The enzyme inhibition assay was performed against human PDE enzymes (PDE1A, PDE3A, PDE4A, PDE4B, PDE4C, PDE4D, and PDE7A; BPS Biosciences, San Diego, CA, United States) according to the manufacturer’s instructions (LANCE Ultra cAMP assay kit; Perkin Elmer, United States). In each well, 5 μl of 3 nM cAMP, 2.5 μl of PDE enzyme (0.1 ng/well), and 2.5 μl of inhibitor solution were added, and incubated at 37°C for 1 h. After incubation, 5 μL each of Eu-cAMP and ULight-anti-cAMP detection reagent supplemented with 1 mM of IBMX were added. The reaction mixture was incubated at 37°C for 1 h. After incubation, emission signals were collected at 665 nm using EnVision Multilable Reader (Perkin Elmer, United States).

[3] = system: Raw 264.7 cells; assay: LPS-induced TNF-α in macrophage cell line (ELISA); format: cell-based; conditions: 30 nM compound 1 or 15 nM compound 2, 1 μM LPS 30 min
Protocol: as §1

[4] = system: DNCB-induced NC/Nga mice; assay: DNCB-induced atopic dermatitis model, evaluation of skin lesion and organs; format: in vivo, mouse; conditions: for dorsal skin thickness / spleen weight / subiliac lymph node size / subiliac lymph node weight / week after which significant reduction in dermatitis score was observed / scratching frequency (DNCB-induced itching sensation) / dermatitis score / AD-like skin features (erythema, hemorrhage, dry skin): DNCB-induced mice; for dorsal skin thickness: end of experiment, DNCB alone 1.19 mm, control 0.45 mm; for dorsal skin thickness / spleen weight / subiliac lymph node size / subiliac lymph node weight: topical 1% compound 1 or 0.3% compound 2; for spleen weight / subiliac lymph node size / subiliac lymph node weight / AD-like skin features (erythema, hemorrhage, dry skin): vs DNCB alone; for week after which significant reduction in dermatitis score was observed / scratching frequency (DNCB-induced itching sensation) / dermatitis score / AD-like skin features (erythema, hemorrhage, dry skin): topical once daily, 1% compound 1 or 0.3% compound 2; for scratching frequency (DNCB-induced itching sensation): measured once-a-week for 5 weeks; for dermatitis score: p < 0.01 vs DNCB; for skin feature of compound alone treated mice: no DNCB, topical 1% compound 1 or 0.3% compound 2 with vehicle alone
Protocol: (§3) Male NC/Nga mice, 7-weeks-old, were purchased from Central Lab Animal Inc., South Korea. All mice were housed in specific pathogen-free conditions at the animal facility center of the College of Pharmacy at Seoul National University (Seoul, Korea), and were maintained at 24 – 26°C with a 12 h light and dark cycle. Animal experiments were conducted in accordance with protocols approved by the Institutional Animal Care and Use Committee of Seoul National University.
(§4) NC/Nga mice were classified into six groups (n = 6): (1) vehicle alone, acetone-olive oil (Sigma-Aldrich, St. Louis, MO, United States) in a ratio of 3:1 was used as a vehicle; (2) 1% of compound-1 with vehicle alone; (3) 0.3% of compound-2 with vehicle alone; (4) DNCB+vehicle; (5) DNCB + 1% of compound-1 mixed with vehicle; and (6) DNCB + 0.3% of compound-2 mixed with vehicle. DNCB (Sigma-Aldrich, St. Louis, MO, United States) was used to induce AD on the dorsal skin of the mice. Compound 1 and 2 were dissolved in 150 μl of vehicle and topically applied on the atopic tissue. Hair on the backs of the mice were removed using an electric clipper. Two days later, 150 μl of 1% DNCB was dissolved in the vehicle and applied on the dorsal skin twice with an interval period of 4 days. Afterward, 150 μl of 0.2% DNCB dissolved in the vehicle was applied to challenge the dorsal skin twice-a-week for 5 weeks. AD-induced mice were co-treated with either compound-1 or compound-2 once daily from day six onward until the end of the experiments.
Dermatitis score was measured according to a previously established method, once-a-week for 5 weeks ([Matsuda et al., 1997]). Skin features of dermatitis, such as erythema/hemorrhage, edema, excoriation/erosion, and scaling/dryness were considered in the evaluation. Each symptom was scored as follows: 0 (none); 1 (mild); 2 (moderate); and 3 (severe). The sum of all the scores was defined as the dermatitis score of individual mice, which ranged between 0 and 12. In addition, the scratching behavior of the experimental animals was measured once-a-week for 5 weeks. Specifically, we measured the frequency with which the mice rubbed their dorsal skin, hind paws, nose, and ears for 10 min.

[5] = target: T2, PDE4B1 (Homo sapiens, UniProt Q07343); assay: PDE enzyme inhibitor assay (LANCE Ultra cAMP), PDE4B; format: biochemical; conditions: for IC50: 0.1 ng/well enzyme, 3 nM cAMP, 37°C 1 h; for specificity against PDE4B compared to other PDE enzymes: versus PDE1A, PDE3B, PDE4A, PDE4C, PDE4D, PDE7
T2 construct: purchased BPS Biosciences

[6] = target: T3, PDE4A4 (Homo sapiens, UniProt P27815); assay: PDE enzyme inhibitor assay (LANCE Ultra cAMP), PDE4A; format: biochemical; conditions: 0.1 ng/well enzyme, 3 nM cAMP, 37°C 1 h
T3 construct: purchased BPS Biosciences
Protocol: as §2

[7] = target: T4, PDE1A (Homo sapiens, UniProt P54750); assay: PDE enzyme inhibitor assay (LANCE Ultra cAMP), PDE1A; format: biochemical; conditions: 0.1 ng/well enzyme, 3 nM cAMP, 37°C 1 h
T4 construct: purchased BPS Biosciences
Protocol: as §2

[8] = target: T5, PDE7 (Homo sapiens, UniProt Q13946); assay: PDE enzyme inhibitor assay (LANCE Ultra cAMP), PDE7; format: biochemical; conditions: 0.1 ng/well enzyme, 3 nM cAMP, 37°C 1 h
T5 construct: purchased BPS Biosciences
Protocol: as §2

[9] = system: DNCB-induced NC/Nga mice; assay: DNCB-induced atopic dermatitis model, serum IgE and cytokines by ELISA; format: in vivo, mouse; conditions: for serum IL-4 level / serum IL-5 level: topical 1% compound 1 (p < 0.05) or 0.3% compound 2 (p < 0.01); for serum IL-4 level / serum IL-5 level / serum IL-17 level: vs DNCB alone; for serum IL-17 level: topical 1% compound 1 (p < 0.5) or 0.3% compound 2 (p < 0.01); for serum IFN-γ level (reduced by DNCB): topical 1% compound 1 or 0.3% compound 2; for serum IgE level: topical 1% compound 1 or 0.3% compound 2, p < 0.01 vs DNCB
Protocol: as §3, §4
On the final day of the experimental scheme, blood samples were collected from the experimental animals. Serum was isolated and stored at -80°C along with protease inhibitor cocktail for later use (Thermo Fisher Scientific, United States). Serum IL-4, IL-5, IL-17, IFN-γ, and IgE levels were measured according to the manufacturer’s instructions (Biolegend, San Diego, CA, United States; IL-4-431101; IL-17-432501; IL-5-431204; IFN-γ- 430801; IgE-432401; TNF-α- 430901). Serum samples were diluted five-fold for the cytokine assay. 10,000-fold diluted serum samples were utilized for the IgE assay. Absorbance was measured immediately at 492 nm using a multiplate reader (Molecular Devices Spectramax M5, Sunnyvale, CA, United States).

[10] = target: T6, PDE4C1 (Homo sapiens, UniProt Q08493); assay: PDE enzyme inhibitor assay (LANCE Ultra cAMP), PDE4C; format: biochemical; conditions: 0.1 ng/well enzyme, 3 nM cAMP, 37°C 1 h
T6 construct: purchased BPS Biosciences
Protocol: as §2

[11] = system: DNCB-induced NC/Nga mice; assay: DNCB-induced atopic dermatitis model, histopathology and immunohistochemistry of dorsal skin; format: in vivo, mouse; conditions: for mast cell infiltration in the epidermis region (toluidine blue), number of mast cells: topical 1% compound 1 or 0.3% compound 2, DNCB alone 97 ± 10.58, control 13 ± 2; for CD4+ cells in the skin (immunohistochemistry) / epidermal thickening (H&E) / infiltration of inflammatory cells into epidermis and dermis (H&E): topical 1% compound 1 or 0.3% compound 2, vs DNCB alone
Protocol: as §3, §4
Skin samples collected from the experimental mice were fixed by using 10% neutral buffered formalin, and embedded in paraffin. 4-μm thin tissue sections were prepared and stained with hematoxylin and eosin (H&E; Sigma-Aldrich, United States). To investigate the mast cell infiltration, sections were stained with toluidine blue (Sigma-Aldrich, United States). For immunohistochemical analysis, tissue sections were microwaved in sodium citrate buffer for 10 min to retrieve the antigen/epitope. After incubating with 0.1% triton X-100 containing phosphate buffered saline (PBS), sections were blocked with 10% FBS. Then, sections were incubated overnight with primary antibodies specific for IL-4, 5, 17, IFN-γ, and CD4, respectively (Santa Cruz Biotechnology, Santa Cruz, CA, United States). After treatment with 0.3% H2O2 in 0.1 M PBS for 15 min, sections were incubated with HRP-conjugated secondary antibodies specific for IL-4, 5, 17, IFN-γ, and CD4 for 1 h at room temperature. Diaminobenzidine was used to detect peroxidase activity, which was photographed using an Olympus AX70 light microscope (Tokyo, Japan).

[12] = target: PDE3B (Homo sapiens, UniProt Q13370); assay: PDE enzyme inhibitor assay (LANCE Ultra cAMP), PDE3B; format: biochemical; conditions: 0.1 ng/well enzyme, 3 nM cAMP, 37°C 1 h
Chain of PDE3B (Q13370 whole entry): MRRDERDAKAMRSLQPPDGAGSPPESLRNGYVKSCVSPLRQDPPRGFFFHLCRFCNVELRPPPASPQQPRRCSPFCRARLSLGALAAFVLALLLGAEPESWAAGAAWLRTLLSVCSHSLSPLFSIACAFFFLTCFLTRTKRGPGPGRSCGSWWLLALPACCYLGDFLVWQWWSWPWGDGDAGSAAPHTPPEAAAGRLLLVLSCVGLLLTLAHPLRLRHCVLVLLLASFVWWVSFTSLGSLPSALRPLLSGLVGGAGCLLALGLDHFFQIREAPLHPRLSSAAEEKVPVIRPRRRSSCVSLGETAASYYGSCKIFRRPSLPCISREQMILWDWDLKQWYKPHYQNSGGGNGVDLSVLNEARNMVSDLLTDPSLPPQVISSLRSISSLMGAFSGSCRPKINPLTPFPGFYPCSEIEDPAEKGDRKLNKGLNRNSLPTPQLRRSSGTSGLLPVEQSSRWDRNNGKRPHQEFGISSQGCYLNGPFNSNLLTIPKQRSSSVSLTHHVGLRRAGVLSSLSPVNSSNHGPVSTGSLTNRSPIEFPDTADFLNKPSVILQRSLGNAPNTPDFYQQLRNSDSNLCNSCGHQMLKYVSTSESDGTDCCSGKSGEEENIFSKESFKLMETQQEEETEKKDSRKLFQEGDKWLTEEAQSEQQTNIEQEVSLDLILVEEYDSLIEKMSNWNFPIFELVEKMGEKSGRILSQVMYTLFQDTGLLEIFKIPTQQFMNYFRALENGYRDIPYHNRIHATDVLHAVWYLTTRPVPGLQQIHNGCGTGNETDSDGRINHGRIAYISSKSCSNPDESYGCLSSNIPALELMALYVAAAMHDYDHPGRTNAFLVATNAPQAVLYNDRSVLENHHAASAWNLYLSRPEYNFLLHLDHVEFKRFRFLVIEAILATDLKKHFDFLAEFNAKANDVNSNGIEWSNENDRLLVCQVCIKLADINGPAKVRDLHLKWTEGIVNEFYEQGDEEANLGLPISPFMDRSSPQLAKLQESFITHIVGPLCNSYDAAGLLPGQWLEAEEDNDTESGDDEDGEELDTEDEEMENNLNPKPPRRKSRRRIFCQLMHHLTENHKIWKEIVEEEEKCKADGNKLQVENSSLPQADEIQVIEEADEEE

T2 sequence (Q07343 whole entry): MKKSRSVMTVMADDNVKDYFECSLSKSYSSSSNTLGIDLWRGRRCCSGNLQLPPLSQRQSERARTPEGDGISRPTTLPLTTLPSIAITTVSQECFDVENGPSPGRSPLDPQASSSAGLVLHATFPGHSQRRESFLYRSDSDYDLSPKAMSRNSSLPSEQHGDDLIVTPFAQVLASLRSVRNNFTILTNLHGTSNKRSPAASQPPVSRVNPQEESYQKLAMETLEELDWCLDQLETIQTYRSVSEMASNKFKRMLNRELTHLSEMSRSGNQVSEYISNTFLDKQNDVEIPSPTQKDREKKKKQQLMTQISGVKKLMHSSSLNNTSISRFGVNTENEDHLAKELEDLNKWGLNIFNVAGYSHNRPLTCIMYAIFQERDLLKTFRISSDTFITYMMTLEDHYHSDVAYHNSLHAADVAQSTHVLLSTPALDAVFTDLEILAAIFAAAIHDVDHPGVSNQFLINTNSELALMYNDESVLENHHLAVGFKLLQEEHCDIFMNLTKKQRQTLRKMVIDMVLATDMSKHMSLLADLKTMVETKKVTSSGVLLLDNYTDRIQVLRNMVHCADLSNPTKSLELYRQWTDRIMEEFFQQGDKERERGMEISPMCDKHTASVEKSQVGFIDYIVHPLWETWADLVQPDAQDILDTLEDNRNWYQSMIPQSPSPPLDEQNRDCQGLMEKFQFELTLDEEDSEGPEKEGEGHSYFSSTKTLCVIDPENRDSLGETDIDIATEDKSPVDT
T1 sequence (Q08499 1-748 isoform Q08499-11): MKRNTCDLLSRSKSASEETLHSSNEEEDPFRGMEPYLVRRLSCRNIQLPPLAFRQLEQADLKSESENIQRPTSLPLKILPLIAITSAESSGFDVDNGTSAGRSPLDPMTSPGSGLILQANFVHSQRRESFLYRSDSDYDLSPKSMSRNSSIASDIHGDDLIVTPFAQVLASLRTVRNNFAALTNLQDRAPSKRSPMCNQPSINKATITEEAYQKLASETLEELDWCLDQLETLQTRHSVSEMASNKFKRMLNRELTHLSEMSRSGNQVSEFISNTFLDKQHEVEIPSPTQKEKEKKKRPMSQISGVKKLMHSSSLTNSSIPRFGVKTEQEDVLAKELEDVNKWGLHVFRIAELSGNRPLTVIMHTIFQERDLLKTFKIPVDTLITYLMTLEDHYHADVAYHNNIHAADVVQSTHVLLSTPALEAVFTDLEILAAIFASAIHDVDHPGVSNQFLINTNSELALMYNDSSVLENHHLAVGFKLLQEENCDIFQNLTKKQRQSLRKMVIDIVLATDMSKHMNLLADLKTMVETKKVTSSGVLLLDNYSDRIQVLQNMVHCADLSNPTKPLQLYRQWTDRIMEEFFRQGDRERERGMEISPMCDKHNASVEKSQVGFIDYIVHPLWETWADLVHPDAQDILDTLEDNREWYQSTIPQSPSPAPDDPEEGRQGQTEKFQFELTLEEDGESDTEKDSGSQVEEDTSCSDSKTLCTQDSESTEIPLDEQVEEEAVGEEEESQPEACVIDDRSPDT
T4 sequence (P54750 whole entry): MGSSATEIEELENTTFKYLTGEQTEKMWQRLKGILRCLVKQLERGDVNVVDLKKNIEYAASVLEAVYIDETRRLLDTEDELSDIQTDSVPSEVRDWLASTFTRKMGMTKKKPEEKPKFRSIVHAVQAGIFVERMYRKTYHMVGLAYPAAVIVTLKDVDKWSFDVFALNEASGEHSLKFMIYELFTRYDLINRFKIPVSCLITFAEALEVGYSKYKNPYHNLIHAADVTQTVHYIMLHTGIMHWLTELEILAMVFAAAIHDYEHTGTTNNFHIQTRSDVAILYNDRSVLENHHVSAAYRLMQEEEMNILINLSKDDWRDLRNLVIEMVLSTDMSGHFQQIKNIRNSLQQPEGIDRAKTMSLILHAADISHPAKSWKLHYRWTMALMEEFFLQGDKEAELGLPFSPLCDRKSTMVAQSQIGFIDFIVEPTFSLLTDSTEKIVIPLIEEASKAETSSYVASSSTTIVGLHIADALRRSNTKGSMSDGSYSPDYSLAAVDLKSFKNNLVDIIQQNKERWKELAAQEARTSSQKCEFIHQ
T6 sequence (Q08493 whole entry): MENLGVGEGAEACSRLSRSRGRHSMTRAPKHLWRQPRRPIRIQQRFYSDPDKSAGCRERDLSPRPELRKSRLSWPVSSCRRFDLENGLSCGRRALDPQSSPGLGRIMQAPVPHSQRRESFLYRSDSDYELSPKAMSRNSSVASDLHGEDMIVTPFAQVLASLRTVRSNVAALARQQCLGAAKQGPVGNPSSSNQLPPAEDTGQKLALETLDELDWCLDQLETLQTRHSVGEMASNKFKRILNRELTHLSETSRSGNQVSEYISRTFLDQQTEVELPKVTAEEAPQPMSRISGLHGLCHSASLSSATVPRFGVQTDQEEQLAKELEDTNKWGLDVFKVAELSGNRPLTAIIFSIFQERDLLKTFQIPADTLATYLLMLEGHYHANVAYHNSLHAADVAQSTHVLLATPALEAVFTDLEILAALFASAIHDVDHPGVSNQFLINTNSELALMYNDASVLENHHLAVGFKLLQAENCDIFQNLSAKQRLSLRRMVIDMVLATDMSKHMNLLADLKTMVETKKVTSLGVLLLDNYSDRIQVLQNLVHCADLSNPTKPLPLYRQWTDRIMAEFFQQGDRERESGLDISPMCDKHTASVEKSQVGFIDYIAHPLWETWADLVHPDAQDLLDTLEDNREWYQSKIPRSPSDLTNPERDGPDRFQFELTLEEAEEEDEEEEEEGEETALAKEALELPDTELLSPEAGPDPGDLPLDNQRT
T5 sequence (Q13946 whole entry): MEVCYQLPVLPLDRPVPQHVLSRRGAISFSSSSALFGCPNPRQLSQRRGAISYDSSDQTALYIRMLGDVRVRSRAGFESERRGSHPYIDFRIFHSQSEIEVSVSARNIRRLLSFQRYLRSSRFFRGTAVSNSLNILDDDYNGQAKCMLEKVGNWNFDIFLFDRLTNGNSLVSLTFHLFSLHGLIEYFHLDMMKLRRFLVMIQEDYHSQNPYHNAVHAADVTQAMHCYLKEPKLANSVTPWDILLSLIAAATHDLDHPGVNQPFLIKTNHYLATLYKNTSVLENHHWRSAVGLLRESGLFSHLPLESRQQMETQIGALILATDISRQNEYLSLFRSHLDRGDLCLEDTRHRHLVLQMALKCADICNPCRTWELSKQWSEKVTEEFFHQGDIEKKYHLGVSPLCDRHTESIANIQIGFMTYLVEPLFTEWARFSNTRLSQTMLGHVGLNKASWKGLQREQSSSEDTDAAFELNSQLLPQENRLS

Structure (SMILES)	intracellular levels of cAMP [1]	IC50 [2]	LPS-induced TNF-α synthesis [3]	dorsal skin thickness [4]	spleen weight [4]	subiliac lymph node size [4]	subiliac lymph node weight [4]	week after which significant reduction in dermatitis score was observed [4]	scratching frequency (DNCB-induced itching sensation) [4]	dermatitis score [4]	AD-like skin features (erythema, hemorrhage, dry skin) [4]	skin feature of compound alone treated mice [4]	IC50 [5]	specificity against PDE4B compared to other PDE enzymes [5]	IC50 [6]	IC50 [7]	IC50 [8]	serum IL-4 level [9]	serum IL-5 level [9]	serum IL-17 level [9]	further results
COc1ccc(NC(=O)c2cnc(SC)nc2N2CCOCC2)cc1OC [compound 1, N-(3,4-dimethoxyphenyl)-2-(methylthio)-4-morpholinopyrimidine-5-carboxamide]	significantly improved	220 ± 16.3 nM	effectively inhibited	0.78 mm	significantly reduced	drastically reduced	drastically reduced	third	significantly (p < 0.01) inhibited	significant reduction	reduced levels of erythema and hemorrhage and dry skin	normal skin feature, no sign of allergy was observed	31 ± 7.17 nM	not exclusive to PDE4B alone	45 ± 3.54 nM	756 ± 59 nM	389 ± 26.3 nM	significantly reversed	significantly reversed	reduced level	serum IFN-γ level (reduced by DNCB) [9]: significantly reversed; serum IgE level [9]: significantly reduced; IC50 [10]: 77 ± 8.8 nM; mast cell infiltration in the epidermis region (toluidine blue), number of mast cells [11]: 56 ± 11 per 350 μm^2; CD4+ cells in the skin (immunohistochemistry) [11]: reduced levels of CD4+ cells; epidermal thickening (H&E) [11]: reduced epidermal thickening; infiltration of inflammatory cells into epidermis and dermis (H&E) [11]: reduced levels of inflammatory cells; IC50 [12]: 800 ± 45.8 nM
COc1ccc(-c2nc(C(F)(F)F)ncc2C(=O)Nc2ccncc2)cc1OC [compound 2, 4-(3,4-dimethoxyphenyl)-N-(pyridin-4-yl)-2-(trifluoromethyl)pyrimidine-5-carboxamide]	significantly improved	108 ± 3.78 nM	effectively inhibited	0.64 mm	significantly reduced	drastically reduced	drastically reduced	second	significantly (p < 0.01) inhibited	significant reduction	reduced levels of erythema and hemorrhage and dry skin	normal skin feature, no sign of allergy was observed	15 ± 0.4 nM	high specificity against PDE4B	152 ± 1.33 nM	98 ± 8.45 nM	250 ± 14.6 nM	significantly reversed	significantly reversed	reduced level	concentration required to inhibit PDE4D relative to PDE4B ([2]; PDE4D versus PDE4B): nearly sevenfold higher concentration; serum IFN-γ level (reduced by DNCB) [9]: significantly reversed; serum IgE level [9]: significantly reduced; IC50 [10]: 57 ± 4.87 nM; mast cell infiltration in the epidermis region (toluidine blue), number of mast cells [11]: 29.41 ± 6 per 350 μm^2; CD4+ cells in the skin (immunohistochemistry) [11]: reduced levels of CD4+ cells; epidermal thickening (H&E) [11]: reduced epidermal thickening; infiltration of inflammatory cells into epidermis and dermis (H&E) [11]: reduced levels of inflammatory cells; IC50 [12]: 169 ± 3.78 nM

Source: article PMC5958743, “A Novel Catecholopyrimidine Based Small Molecule PDE4B Inhibitor Suppresses Inflammatory Cytokines in Atopic Mice” (Frontiers in Pharmacology, 2018)
